Test results reported in patent US20230049952A1, “METHODS AND COMPOUNDS FOR RESTORING MUTANT P53 FUNCTION” (PMV Pharmaceuticals, Inc., priority 2020, published 2023).

System: p53 signaling pathway in MT373 tumors
Assay: MT373 syngeneic sarcoma model: mouse p53 signaling pathway profiling panel
Assay type: in vivo

## CCn1c(C#CCNc2ccccc2)cc2cc(CNC3CCN(C)CC3)ccc21 [Compound 1, 1-Anilino-3-{1-ethyl-5-[(1-methyl-4-piperidylamino)methyl]-1H-indol-2-yl}-2-propyne]
150 mg/kg BIDx1, 8 h
  Il6 fold increase or percent reduction vs vehicle control: 42.72 fold or %
  Jun fold increase or percent reduction vs vehicle control: 32.68 fold or %
  Kras fold increase or percent reduction vs vehicle control: 8.77 fold or %
  Lig4 fold increase or percent reduction vs vehicle control: 9.59 fold or %
  Mdm2 fold increase or percent reduction vs vehicle control: 7.29 fold or %
  Mdm4 fold increase or percent reduction vs vehicle control: 0.59 fold or %
  Mel1 fold increase or percent reduction vs vehicle control: 3.87 fold or %
  Mlh1 fold increase or percent reduction vs vehicle control: 28.64 fold or %
  Msh2 fold increase or percent reduction vs vehicle control: 35.13 fold or %
  Myod1 fold increase or percent reduction vs vehicle control: 14.90 fold or %
  Nf1 fold increase or percent reduction vs vehicle control: 17.13 fold or %
  Nfkb1 fold increase or percent reduction vs vehicle control: 6.02 fold or %
  Pcna fold increase or percent reduction vs vehicle control: 44.75 fold or %
  Pmaip1 fold increase or percent reduction vs vehicle control: 2.33 fold or %
  Ppm1d fold increase or percent reduction vs vehicle control: 1.44 fold or %
  Prc1 fold increase or percent reduction vs vehicle control: 17.14 fold or %
  Prkca fold increase or percent reduction vs vehicle control: 27.03 fold or %
  Pten fold increase or percent reduction vs vehicle control: 14.47 fold or %
  Pttg1 fold increase or percent reduction vs vehicle control: 3.91 fold or %
  Rb1 fold increase or percent reduction vs vehicle control: 1.08 fold or %
  Rela fold increase or percent reduction vs vehicle control: 5.08 fold or %
  Rprm fold increase or percent reduction vs vehicle control: 1.81 fold or %
  Serpinb5 fold increase or percent reduction vs vehicle control: 2.43 fold or %
  Sesn2 fold increase or percent reduction vs vehicle control: 2.88 fold or %
  Sfn fold increase or percent reduction vs vehicle control: 15.09 fold or %
  Sirt1 fold increase or percent reduction vs vehicle control: 24.95 fold or %
  Stat1 fold increase or percent reduction vs vehicle control: 1.23 fold or %
  Tnf fold increase or percent reduction vs vehicle control: 1.57 fold or %
  Traf1 fold increase or percent reduction vs vehicle control: 1.4 fold or %
  Trp53bp2 fold increase or percent reduction vs vehicle control: 29.54 fold or %
  Trp53 fold increase or percent reduction vs vehicle control: 16.49 fold or %
150 mg/kg BIDx1, 24 h
  Apex1 fold increase or percent reduction vs vehicle control: 29.90 fold or %
  Atm fold increase or percent reduction vs vehicle control: 24.13 fold or %
  Atr fold increase or percent reduction vs vehicle control: 14.58 fold or %
  Bag1 fold increase or percent reduction vs vehicle control: 32.76 fold or %
  Bax fold increase or percent reduction vs vehicle control: 1.61 fold or %
  Bbc3 fold increase or percent reduction vs vehicle control: 2.27 fold or %
  Bcl2 fold increase or percent reduction vs vehicle control: 20.93 fold or %
  Bid fold increase or percent reduction vs vehicle control: 1.08 fold or %
  Birc5 fold increase or percent reduction vs vehicle control: 53.57 fold or %
  Brca1 fold increase or percent reduction vs vehicle control: 44.99 fold or %
  Brca2 fold increase or percent reduction vs vehicle control: 34.71 fold or %
  Btg2 fold increase or percent reduction vs vehicle control: 1.06 fold or %
  Casp2 fold increase or percent reduction vs vehicle control: 28.04 fold or %
  Ccnb1 fold increase or percent reduction vs vehicle control: 69.21 fold or %
  Ccne1 fold increase or percent reduction vs vehicle control: 38.46 fold or %
  Ccng1 fold increase or percent reduction vs vehicle control: 6.84 fold or %
  Ccnh fold increase or percent reduction vs vehicle control: 16.52 fold or %
  Cdc25a fold increase or percent reduction vs vehicle control: 41.75 fold or %
  Cdk1 fold increase or percent reduction vs vehicle control: 64.58 fold or %
  Cdk4 fold increase or percent reduction vs vehicle control: 55.89 fold or %
  Cdkn1a fold increase or percent reduction vs vehicle control: 10.93 fold or %
  Cdkn2a fold increase or percent reduction vs vehicle control: 36.93 fold or %
  Chek1 fold increase or percent reduction vs vehicle control: 58.77 fold or %
  Cradd fold increase or percent reduction vs vehicle control: 18.77 fold or %
  Cul9 fold increase or percent reduction vs vehicle control: 1.05 fold or %
  Dapk1 fold increase or percent reduction vs vehicle control: 1.14 fold or %
  Dnmt1 fold increase or percent reduction vs vehicle control: 22.85 fold or %
  E2f1 fold increase or percent reduction vs vehicle control: 26.25 fold or %
  E2f3 fold increase or percent reduction vs vehicle control: 39.40 fold or %
  Egfr fold increase or percent reduction vs vehicle control: 47.37 fold or %
  Egr1 fold increase or percent reduction vs vehicle control: 66.33 fold or %
  Ep300 fold increase or percent reduction vs vehicle control: 1.15 fold or %
  Ercc1 fold increase or percent reduction vs vehicle control: 34.86 fold or %
  Esr1 fold increase or percent reduction vs vehicle control: 1.24 fold or %
  Fadd fold increase or percent reduction vs vehicle control: 8.43 fold or %
  Fas fold increase or percent reduction vs vehicle control: 1.94 fold or %
  Fasl fold increase or percent reduction vs vehicle control: 6.77 fold or %
  Foxo3 fold increase or percent reduction vs vehicle control: 1.20 fold or %
  Gadd45a fold increase or percent reduction vs vehicle control: 38.66 fold or %
  Hif1a fold increase or percent reduction vs vehicle control: 10.42 fold or %
  Il6 fold increase or percent reduction vs vehicle control: 85.31 fold or %
  Jun fold increase or percent reduction vs vehicle control: 46.70 fold or %
  Kras fold increase or percent reduction vs vehicle control: 9.19 fold or %
  Lig4 fold increase or percent reduction vs vehicle control: 1.02 fold or %
  Mdm2 fold increase or percent reduction vs vehicle control: 5.96 fold or %
  Mdm4 fold increase or percent reduction vs vehicle control: 1.22 fold or %
  Mel1 fold increase or percent reduction vs vehicle control: 9.59 fold or %
  Mlh1 fold increase or percent reduction vs vehicle control: 10.59 fold or %
  Msh2 fold increase or percent reduction vs vehicle control: 26.97 fold or %
  Myod1 fold increase or percent reduction vs vehicle control: 3.09 fold or %
  Nf1 fold increase or percent reduction vs vehicle control: 12.02 fold or %
  Nfkb1 fold increase or percent reduction vs vehicle control: 5.42 fold or %
  Pcna fold increase or percent reduction vs vehicle control: 42.63 fold or %
  Pmaip1 fold increase or percent reduction vs vehicle control: 1.45 fold or %
  Ppm1d fold increase or percent reduction vs vehicle control: 1.49 fold or %
  Prc1 fold increase or percent reduction vs vehicle control: 54.87 fold or %
  Prkca fold increase or percent reduction vs vehicle control: 28.12 fold or %
  Pten fold increase or percent reduction vs vehicle control: 1.08 fold or %
  Pttg1 fold increase or percent reduction vs vehicle control: 1.11 fold or %
  Rb1 fold increase or percent reduction vs vehicle control: 1.48 fold or %
  Rela fold increase or percent reduction vs vehicle control: 14.73 fold or %
  Rprm fold increase or percent reduction vs vehicle control: 2.12 fold or %
  Serpinb5 fold increase or percent reduction vs vehicle control: 2.23 fold or %
  Sesn2 fold increase or percent reduction vs vehicle control: 2.45 fold or %
  Sfn fold increase or percent reduction vs vehicle control: 31.21 fold or %
  Sirt1 fold increase or percent reduction vs vehicle control: 15.06 fold or %
  Stat1 fold increase or percent reduction vs vehicle control: 1.51 fold or %
  Tnf fold increase or percent reduction vs vehicle control: 1.23 fold or %
  Traf1 fold increase or percent reduction vs vehicle control: 1.20 fold or %
  Trp53bp2 fold increase or percent reduction vs vehicle control: 12.94 fold or %
  Trp53 fold increase or percent reduction vs vehicle control: 27.25 fold or %
150 mg/kg BIDx1, 48 h
  Apex1 fold increase or percent reduction vs vehicle control: 31.42 fold or %
  Atm fold increase or percent reduction vs vehicle control: 26.33 fold or %
  Atr fold increase or percent reduction vs vehicle control: 16.47 fold or %
  Bag1 fold increase or percent reduction vs vehicle control: 42.01 fold or %
  Bax fold increase or percent reduction vs vehicle control: 30.76 fold or %
  Bbc3 fold increase or percent reduction vs vehicle control: 1.04 fold or %
  Bcl2 fold increase or percent reduction vs vehicle control: 23.30 fold or %
  Bid fold increase or percent reduction vs vehicle control: 1.01 fold or %
  Birc5 fold increase or percent reduction vs vehicle control: 66.42 fold or %
  Brca1 fold increase or percent reduction vs vehicle control: 60.55 fold or %
  Brca2 fold increase or percent reduction vs vehicle control: 41.49 fold or %
  Btg2 fold increase or percent reduction vs vehicle control: 1.05 fold or %
  Casp2 fold increase or percent reduction vs vehicle control: 15.74 fold or %
  Ccnb1 fold increase or percent reduction vs vehicle control: 73.80 fold or %
  Ccne1 fold increase or percent reduction vs vehicle control: 38.25 fold or %
  Ccng1 fold increase or percent reduction vs vehicle control: 1.45 fold or %
  Ccnh fold increase or percent reduction vs vehicle control: 16.38 fold or %
  Cdc25a fold increase or percent reduction vs vehicle control: 42.22 fold or %
  Cdk1 fold increase or percent reduction vs vehicle control: 69.40 fold or %
  Cdk4 fold increase or percent reduction vs vehicle control: 54.23 fold or %
  Cdkn1a fold increase or percent reduction vs vehicle control: 1.38 fold or %
  Cdkn2a fold increase or percent reduction vs vehicle control: 38.18 fold or %
  Chek1 fold increase or percent reduction vs vehicle control: 63.16 fold or %
  Cradd fold increase or percent reduction vs vehicle control: 24.24 fold or %
  Cul9 fold increase or percent reduction vs vehicle control: 1.03 fold or %
  Dapk1 fold increase or percent reduction vs vehicle control: 1.17 fold or %
  Dnmt1 fold increase or percent reduction vs vehicle control: 34.04 fold or %
  E2f1 fold increase or percent reduction vs vehicle control: 30.48 fold or %
  E2f3 fold increase or percent reduction vs vehicle control: 33.97 fold or %
  Egfr fold increase or percent reduction vs vehicle control: 41.85 fold or %
  Egr1 fold increase or percent reduction vs vehicle control: 46.38 fold or %
  Ep300 fold increase or percent reduction vs vehicle control: 1.10 fold or %
  Ercc1 fold increase or percent reduction vs vehicle control: 44.10 fold or %
  Esr1 fold increase or percent reduction vs vehicle control: 1.67 fold or %
  Fadd fold increase or percent reduction vs vehicle control: 9.11 fold or %
  Fas fold increase or percent reduction vs vehicle control: 10.02 fold or %
  Fasl fold increase or percent reduction vs vehicle control: 1.18 fold or %
  Foxo3 fold increase or percent reduction vs vehicle control: 7.35 fold or %
  Gadd45a fold increase or percent reduction vs vehicle control: 42.12 fold or %
  Hif1a fold increase or percent reduction vs vehicle control: 2.87 fold or %
  Il6 fold increase or percent reduction vs vehicle control: 79.27 fold or %
  Jun fold increase or percent reduction vs vehicle control: 47.43 fold or %
  Kras fold increase or percent reduction vs vehicle control: 1.18 fold or %
  Lig4 fold increase or percent reduction vs vehicle control: 1.12 fold or %
  Mdm2 fold increase or percent reduction vs vehicle control: 1.03 fold or %
  Mdm4 fold increase or percent reduction vs vehicle control: 1.28 fold or %
  Mel1 fold increase or percent reduction vs vehicle control: 6.76 fold or %
  Mlh1 fold increase or percent reduction vs vehicle control: 19.02 fold or %
  Msh2 fold increase or percent reduction vs vehicle control: 29.32 fold or %
  Myod1 fold increase or percent reduction vs vehicle control: 1.51 fold or %
  Nf1 fold increase or percent reduction vs vehicle control: 9.92 fold or %
  Nfkb1 fold increase or percent reduction vs vehicle control: 4.37 fold or %
  Pcna fold increase or percent reduction vs vehicle control: 58.04 fold or %
  Pmaip1 fold increase or percent reduction vs vehicle control: 1.17 fold or %
  Ppm1d fold increase or percent reduction vs vehicle control: 2.87 fold or %
  Prc1 fold increase or percent reduction vs vehicle control: 59.70 fold or %
  Prkca fold increase or percent reduction vs vehicle control: 22.18 fold or %
  Pten fold increase or percent reduction vs vehicle control: 1.08 fold or %
  Pttg1 fold increase or percent reduction vs vehicle control: 0.69 fold or %
  Rb1 fold increase or percent reduction vs vehicle control: 1.43 fold or %
  Rela fold increase or percent reduction vs vehicle control: 9.46 fold or %
  Rprm fold increase or percent reduction vs vehicle control: 1.00 fold or %
  Serpinb5 fold increase or percent reduction vs vehicle control: 3.17 fold or %
  Sesn2 fold increase or percent reduction vs vehicle control: 1.21 fold or %
  Sfn fold increase or percent reduction vs vehicle control: 13.65 fold or %
